Assay results as given in PMC11881561 (Antimicrobial Agents and Chemotherapy, 2025).
Values after ≈ are worked out from the molar mass of the structure shown.

Experiments:
[1] = test system: D179Y-containing KPC-2 variants; type: biochemical, Klebsiella pneumoniae
KPC-2^D179Y [2] = molecular target: T1, KPC-2^D179Y (Klebsiella pneumoniae, UniProt Q9F663, D178Y); assay: biochemical; conditions: ND = no significant inhibition at the highest concentration tested, read-out: Apparent affinity Ki^app
T1 sequence (Q9F663 25-293 D178Y): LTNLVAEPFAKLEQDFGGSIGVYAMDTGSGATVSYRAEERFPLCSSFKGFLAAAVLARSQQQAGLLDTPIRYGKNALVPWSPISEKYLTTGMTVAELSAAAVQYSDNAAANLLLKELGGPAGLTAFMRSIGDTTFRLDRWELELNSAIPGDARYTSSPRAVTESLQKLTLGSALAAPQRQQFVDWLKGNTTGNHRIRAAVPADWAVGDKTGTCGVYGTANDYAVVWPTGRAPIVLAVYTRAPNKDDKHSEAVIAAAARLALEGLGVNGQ

KPC-3 WT [3] = molecular target: T2, KPC-3 WT (Klebsiella pneumoniae, UniProt Q9F663, H272Y); assay: biochemical; conditions: inhibition of CENTA hydrolysis, read-out: Apparent affinity Ki^app
T2 sequence (Q9F663 27-293 H272Y): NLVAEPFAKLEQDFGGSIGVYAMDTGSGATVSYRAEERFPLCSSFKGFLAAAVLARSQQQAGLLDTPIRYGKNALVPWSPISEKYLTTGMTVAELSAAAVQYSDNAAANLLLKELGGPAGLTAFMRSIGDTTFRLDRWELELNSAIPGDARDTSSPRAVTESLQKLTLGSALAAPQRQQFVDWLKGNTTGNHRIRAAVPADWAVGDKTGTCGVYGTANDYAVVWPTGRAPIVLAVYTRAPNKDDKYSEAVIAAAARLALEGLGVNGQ

[4] = test system: E. coli strains expressing KPC-2^D179Y or KPC-2^D179Y/T243M; assay: microbe, parasite or virus in culture; type: cell-based; conditions: Escherichia coli
[5] = test system: engineered E. coli strain expressing KPC-3^D179Y; assay: microbe, parasite or virus in culture; type: cell-based; conditions: Escherichia coli, BLIs at fixed 4 μg/mL
[6] = test system: engineered E. coli strain expressing KPC-3 wt; assay: microbe, parasite or virus in culture; type: cell-based; conditions: Escherichia coli; KPC-3 wt strain; BLIs at fixed 4 μg/mL
KPC-3^D179Y/T243M [7] = molecular target: T3, KPC-3^D179Y/T243M (Klebsiella pneumoniae, UniProt Q9F663, D178Y/H272Y/T242M); assay: β-lactam hydrolysis kinetics, purified KPC-3 D179Y/T243M; type: biochemical; conditions: substrate hydrolysis by KPC-3 D179Y/T243M
T3 sequence (Q9F663 27-293 D178Y/T242M/H272Y): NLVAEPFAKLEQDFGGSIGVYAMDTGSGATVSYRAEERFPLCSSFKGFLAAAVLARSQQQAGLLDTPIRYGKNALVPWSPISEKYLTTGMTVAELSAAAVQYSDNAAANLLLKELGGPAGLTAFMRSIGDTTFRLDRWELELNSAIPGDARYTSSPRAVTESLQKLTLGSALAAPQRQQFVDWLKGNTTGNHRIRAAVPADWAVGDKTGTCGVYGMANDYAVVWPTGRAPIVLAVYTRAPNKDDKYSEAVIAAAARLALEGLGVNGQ
Method: (§1) Measurements to determine kinetic parameters for hydrolysis, and kinetic parameters for inhibition were performed at ambient temperature in PBS (pH 7.4) containing 0.1 mg/mL bovine serum albumin, using a PowerWaveXS plate reader (BioTek).
(§2) Assays to determine Michaelis-Menten kinetic parameters were performed by mixing variable amounts of enzymes (depending on the enzyme-substrate pair), with serial dilutions of different BL substrates and continuously monitoring the reduction in absorbance associated with BL hydrolysis ([28], [36], [40], [41]). Kinetic parameters were determined by plotting initial rates of hydrolysis (v) as a function of substrate concentration [S] and fitting the data to equation 1 using GraphPad Prism,
(§3) (1) v=[Et]×kcat×[S]/KM+[S]
(§4) where [Et] is the enzyme concentration, kcat the turnover number and KM the Michaelis constant.

[8] = test system: engineered E. coli strain expressing KPC-2^D179Y; assay: microbe, parasite or virus in culture; type: cell-based; conditions: Escherichia coli, BLIs at fixed 4 μg/mL
[9] = test system: engineered E. coli strain expressing KPC-3^V240G; assay: microbe, parasite or virus in culture; type: cell-based; conditions: Escherichia coli, BLIs at fixed 4 μg/mL
KPC-3^V240G = KPC-3^V240G (Klebsiella pneumoniae, UniProt Q9F663, H272Y/V239G); type: biochemical
Sequence of KPC-3^V240G (Q9F663 27-293 V239G/H272Y): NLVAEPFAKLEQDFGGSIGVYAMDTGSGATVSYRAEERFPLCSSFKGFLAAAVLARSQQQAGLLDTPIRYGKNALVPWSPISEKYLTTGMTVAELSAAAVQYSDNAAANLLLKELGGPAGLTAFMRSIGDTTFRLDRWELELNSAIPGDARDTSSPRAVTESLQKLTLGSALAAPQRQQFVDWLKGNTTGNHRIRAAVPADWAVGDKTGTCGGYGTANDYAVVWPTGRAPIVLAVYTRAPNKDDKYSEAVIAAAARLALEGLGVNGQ

[10] = test system: engineered E. coli strain expressing KPC-2^D179Y/T243M; assay: microbe, parasite or virus in culture; type: cell-based; conditions: Escherichia coli, BLIs at fixed 4 μg/mL
[11] = test system: E. coli control strain lacking a β-lactamase; assay: microbe, parasite or virus in culture; type: cell-based; conditions: Escherichia coli, no KPC expressed, BLIs at fixed 4 μg/mL
[12] = test system: engineered E. coli strain expressing KPC-3^D179Y/T243M; assay: microbe, parasite or virus in culture; type: cell-based; conditions: Escherichia coli, BLIs at fixed 4 μg/mL
[13] = test system: engineered E. coli strain expressing KPC-2 wt; assay: microbe, parasite or virus in culture; type: cell-based; conditions: Escherichia coli; KPC-2 wt strain; BLIs at fixed 4 μg/mL
KPC-2^V240G = KPC-2^V240G (Klebsiella pneumoniae, UniProt Q9F663, V239G); type: biochemical
Sequence of KPC-2^V240G (Q9F663 25-293 V239G): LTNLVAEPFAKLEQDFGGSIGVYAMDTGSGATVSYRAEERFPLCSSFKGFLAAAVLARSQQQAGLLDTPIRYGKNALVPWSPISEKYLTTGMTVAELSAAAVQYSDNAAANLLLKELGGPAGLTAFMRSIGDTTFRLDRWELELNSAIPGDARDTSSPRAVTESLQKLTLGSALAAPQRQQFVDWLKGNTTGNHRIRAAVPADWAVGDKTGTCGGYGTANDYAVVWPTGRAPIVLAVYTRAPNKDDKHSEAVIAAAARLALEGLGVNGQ

KPC-2^D179Y/T243M [14] = molecular target: T4, KPC-2^D179Y/T243M (Klebsiella pneumoniae, UniProt Q9F663, D178Y/T242M); assay: biochemical; conditions: ND = no significant inhibition at the highest concentration tested, read-out: Apparent affinity Ki^app
T4 sequence (Q9F663 25-293 D178Y/T242M): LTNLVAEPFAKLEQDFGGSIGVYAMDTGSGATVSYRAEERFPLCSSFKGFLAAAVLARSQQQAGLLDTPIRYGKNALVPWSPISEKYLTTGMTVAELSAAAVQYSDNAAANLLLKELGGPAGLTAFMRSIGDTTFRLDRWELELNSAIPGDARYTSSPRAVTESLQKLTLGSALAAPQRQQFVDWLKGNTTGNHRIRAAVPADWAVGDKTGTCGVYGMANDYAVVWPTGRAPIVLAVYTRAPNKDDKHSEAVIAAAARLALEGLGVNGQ

KPC-2^D179Y [15] = molecular target: T1, KPC-2^D179Y; assay: β-lactam hydrolysis kinetics, purified KPC-2 D179Y; type: biochemical; conditions: substrate hydrolysis by KPC-2 D179Y
Method: as §1, §2, §3, §4

KPC-3^D179Y/T243M [16] = molecular target: T3, KPC-3^D179Y/T243M; assay: biochemical; conditions: ND = no significant inhibition at the highest concentration tested, read-out: Apparent affinity Ki^app
KPC-3^D179Y [17] = molecular target: T5, KPC-3^D179Y (Klebsiella pneumoniae, UniProt Q9F663, D178Y/H272Y); assay: biochemical; conditions: ND = no significant inhibition at the highest concentration tested, read-out: Apparent affinity Ki^app
T5 sequence (Q9F663 27-293 D178Y/H272Y): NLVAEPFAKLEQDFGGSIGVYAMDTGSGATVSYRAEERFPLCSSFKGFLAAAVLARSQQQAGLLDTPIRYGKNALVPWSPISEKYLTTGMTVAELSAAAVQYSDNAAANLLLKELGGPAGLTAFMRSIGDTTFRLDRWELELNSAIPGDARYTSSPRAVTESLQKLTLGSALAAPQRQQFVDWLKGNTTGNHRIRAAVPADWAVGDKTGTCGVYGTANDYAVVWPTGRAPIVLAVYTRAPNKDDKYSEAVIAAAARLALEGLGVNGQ

KPC-2^D179Y/T243M [18] = molecular target: T4, KPC-2^D179Y/T243M; assay: β-lactam hydrolysis kinetics, purified KPC-2 D179Y/T243M; type: biochemical; conditions: substrate hydrolysis by KPC-2 D179Y/T243M
Method: as §1, §2, §3, §4

KPC-2 WT = KPC-2 WT (Klebsiella pneumoniae, UniProt Q9F663); assay: biochemical; conditions: inhibition of CENTA hydrolysis, read-out: Apparent affinity Ki^app
Sequence of KPC-2 WT (Q9F663 25-293 limits assumed): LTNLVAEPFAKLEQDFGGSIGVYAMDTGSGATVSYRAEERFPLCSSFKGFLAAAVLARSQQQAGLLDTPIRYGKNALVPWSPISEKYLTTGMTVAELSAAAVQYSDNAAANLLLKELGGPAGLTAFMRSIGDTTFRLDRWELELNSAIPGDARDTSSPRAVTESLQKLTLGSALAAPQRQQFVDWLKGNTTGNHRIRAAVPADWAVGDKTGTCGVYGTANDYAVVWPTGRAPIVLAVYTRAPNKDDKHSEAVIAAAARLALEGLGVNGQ

[19] = test system: engineered E. coli strain expressing KPC-2^V240G; assay: microbe, parasite or virus in culture; type: cell-based; conditions: Escherichia coli, BLIs at fixed 4 μg/mL
KPC-3 WT [20] = molecular target: T2, KPC-3 WT; type: biochemical; conditions: substrate hydrolysis by KPC-3 WT
KPC-3^D179Y [21] = molecular target: T5, KPC-3^D179Y; assay: β-lactam hydrolysis kinetics, purified KPC-3 D179Y; type: biochemical; conditions: substrate hydrolysis by KPC-3 D179Y
Method: as §1, §2, §3, §4

CO/N=C(\C(=O)N[C@@H]1C(=O)N2C(C(=O)[O-])=C(C[N+]3(C)CCCC3)CS[C@H]12)c1csc(N)n1 [FEP, cefepime]
weaker affinity than CAZ [1]: ~ 10 fold | Ki (KPC-2^D179Y [2]): 4.6 ± 1.2 µM | Ki (KPC-3 WT [3]): 276 ± 47 µM | MIC [4]: 16 µg/mL (≈ 33.3 µM) | MIC [5]: 32 µg/mL (≈ 66.6 µM) | MIC [6]: 128 µg/mL (≈ 266 µM) | Km (KPC-3^D179Y/T243M [7]): 42.5 ± 12.5 µM | kcat (KPC-3^D179Y/T243M [7]): 18.7 ± 2.3 s⁻¹ | MIC [8]: 16 µg/mL (≈ 33.3 µM) | MIC [9]: 256 µg/mL (≈ 533 µM) | Km (KPC-3^V240G): > 500 µM | MIC [10]: 16 µg/mL (≈ 33.3 µM) | MIC [11]: 0.12 µg/mL (≈ 0.25 µM) | MIC [12]: 16 µg/mL (≈ 33.3 µM) | MIC [13]: 64 µg/mL (≈ 133 µM) | Km (KPC-2^V240G): > 500 µM | Ki (KPC-2^D179Y/T243M [14]): 3.2 ± 0.6 µM | Km (KPC-2^D179Y [15]): 3.7 ± 0.7 µM | kcat (KPC-2^D179Y [15]): (1.5 ± 0.07) × 10^−2 s^−1 | Ki (KPC-3^D179Y/T243M [16]): 728 ± 58 µM | Ki (KPC-3^D179Y [17]): 1040 ± 72 µM | Km (KPC-2^D179Y/T243M [18]): 3 ± 0.6 µM | kcat (KPC-2^D179Y/T243M [18]): (1.7 ± 0.06) × 10^−2 s^−1 | Ki (KPC-2 WT): 32.9 ± 5.6 µM | MIC [19]: 128 µg/mL (≈ 266 µM) | Km (KPC-3 WT [20]): > 500 µM | Km (KPC-3^D179Y [21]): 90 ± 31 µM | kcat (KPC-3^D179Y [21]): 38 ± 7 s⁻¹
